The test system of series [1] is diarrhea-predominant IBS subjects. The conditions noted are these: human, in vivo.
In series [2] the test system is non-constipated IBS subjects. Description: Phase II clinical trial Study S241.2.113, adequate relief of IBS symptoms. Format: in vivo, human. As to conditions: 2 mg TID.
Series [3] concerns subjects with ROME II defined IBS-D. Description: 5050 Study: double-blind placebo-controlled prn safety study, adverse events and withdrawals. Format: in vivo, human. The conditions noted are these: Study 5050. On the procedure: The 5050 Study was a double-blind, randomized, placebo-controlled study to evaluate the long-term safety and tolerability of cilansetron 2 mg taken on an as needed (prn) basis for 1 year by male and female subjects with ROME II defined IBS-D. The study was performed in 68 centers. Patients were randomized in a 3:1 ratio to receive either cilansetron 2 mg prn or placebo, up to 3 times a day. Safety parameters were explored by comparing the double-blind groups, average daily doses and treatment exposure. Patient visits were scheduled as follows: Visit 1 (pretreatment), Visit 2 (Day 1), Visit 3 (Month 1), Visit 4 (Month 3), Visit 5 (Month 6), Visit 6 (Month 9), and Visit 7 (Month 12). Safety assessments included: adverse events (AEs)/serious adverse events (SAES); laboratory parameters (pretreatment visit and at Months 1, 6, and 12); electrocardiograms (pretreatment visit and at Months 1, 6, and 12); vital signs (at each visit); physical examinations and body weight (pretreatment visit and at Month 12); prior and concomitant medication use (each visit and/or through spontaneous reporting); stool cards for occult blood (every visit except Visit 1). The number of tablets taken per day was recorded daily through a validated interactive voice response system. Patients who met the ROME criteria for IBS and ROME II criteria for the diarrhea predominant subpopulation were included in the study. Patients with acute colitis of any etiology, history of chronic colitis of any etiology, or a history of intestinal obstruction, stricture, toxic megacolon, gastrointestinal (GI) perforation, or fecal impaction were excluded from the study.
For Study 5050, of a total of 402 patients randomized to treatment, 400 received study medication and 395 were included in the safety analysis (cilansetron, N=301; placebo, N=94). Five patients were excluded because of a lack of a post-baseline safety evaluation. Thirty nine percent of patients in the cilansetron group and 56% in the placebo group withdrew from the study; the differences in withdrawals largely were due to lack of efficacy (15% v. 34%, respectively), followed by other unspecified reasons (16% v. 19%, respectively) and AEs (10% v. 9%, respectively). Most patients (57%) were in the 41 to 64 year age category and 72% of all patients were female.

Turning to `Cc1nccn1C[C@H]1CCc2c(c3cccc4c3n2CCC4)C1=O` [cilansetron, (R)-(−)-4,5,6,8,9,10-hexahydro-10-[(2-methyl-1H-imidazol-1-yl)methyl]-11H-pyrido-[3,2,1-jk]-carbazol-11-one], the “TEAE leading to permanent discontinuation: Oesophageal Reflux Aggravated” value in series [1] (both) is listed as 1 (<1%) n (%). Besides, in series [1] (both, 52 weeks), the “TEAE: Oesophageal Reflux Aggravated” value is listed as 3 (<1%) n (%). The “TEAE: Gastrooesophageal Reflux Disease” value in series [1] (52 weeks) is on record as 4 (<1%) n (%). Besides, the “adequate relief of IBS symptoms versus placebo” value in series [2] is recorded as “superior to placebo”. For the same compound, in series [3] (2 mg prn (N = 301)), the “Treatment-related AE: Alanine aminotransferase increased” value is given as 9 (3) N (%), the “Treatment-related AE: Diarrhea (not otherwise specified)” value is 5 (2) N (%), the “Treatment-related AE: Flatulence” value is 6 (2) N (%) and the “Treatment-related AE: Headache (not otherwise specified)” value is listed as 13 (4) N (%). Besides, in series [3] (2 mg prn (N = 301)), the “Treatment-related AE: Nausea” value is given as 15 (5) N (%), the “Treatment-related AE: Rectal Hemmorhage” value is 8 (3) N (%), the “treatment-related AE: abdominal pain not otherwise specified” value was 16 (5) N (%) and the “treatment-related AE: constipation” value was 24 (8) N (%). Also, in series [3] (cilansetron group), the “AE incidence: GI and abdominal pain (excluding oral and throat)” value is recorded as 12%; the “AE incidence: GI atonic and hypomotility disorders” value was found to be 11%; the “AE incidence: nausea and vomiting” value was found to be 7%; the “AE leading to study discontinuation: abdominal pain” value came out at 2%. In series [3] (cilansetron group), the “AE leading to study discontinuation: constipation” value worked out at 2%, the “treatment-related AE: abdominal pain not otherwise specified” value is 5%, the “treatment-related AE: constipation” value is 8% and the “withdrawals due to AEs” value is listed as 10%. Besides, the “withdrawals due to lack of efficacy” value in series [3] (cilansetron group) is reported as 15%.

(Values after patent publication US20070093520A1, “Method of treatment of diarrhea-predominant irritable bowel syndrome in a subject” (priority 2005, published 2007).)
